Data set [1] addresses T1, ligand-binding domain (LBD) of LXRβ (Homo sapiens, UniProt P55055, DUP175-175).
T1 construct: LXRβ (amino acids 156-461); expressed in transfected cells; host or cells: HEK293
T1 sequence (P55055 with tags, fused parts or gaps DUP175-175 limits assumed): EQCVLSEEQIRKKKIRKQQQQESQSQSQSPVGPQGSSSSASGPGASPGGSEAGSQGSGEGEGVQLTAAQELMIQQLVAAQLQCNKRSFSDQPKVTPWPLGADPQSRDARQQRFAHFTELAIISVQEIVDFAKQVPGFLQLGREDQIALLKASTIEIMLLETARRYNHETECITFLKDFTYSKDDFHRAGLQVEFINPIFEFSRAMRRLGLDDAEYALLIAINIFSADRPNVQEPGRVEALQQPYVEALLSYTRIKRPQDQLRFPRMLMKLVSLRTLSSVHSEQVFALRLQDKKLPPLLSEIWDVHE
Description: LXR Gal4 reporter transient transfection assay (LBD-M2H Gal4β). As to conditions: HEK293 cells. It counts as cell-based. The method, boiled down:
(§1)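 Test compounds act for 16 h on transiently transfected HEK293 cells carrying AD-LXR and GAL4 BD-cofactor (SRC1 or NCoR) fusions. Firefly luciferase under GAL4 elements is quantified and corrected with Renilla luciferase for transfection efficiency.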

For data set [2], the target named is T2, full length (FL) LXRβ (Homo sapiens, UniProt P55055, DUP175-175).
T2 construct: the full length (FL) proteins of LXRα (amino acids 1-447); NP005684; NP009052; expressed in transfected cells; host or cells: HEK293
T2 sequence (P55055 with tags, fused parts or gaps DUP175-175): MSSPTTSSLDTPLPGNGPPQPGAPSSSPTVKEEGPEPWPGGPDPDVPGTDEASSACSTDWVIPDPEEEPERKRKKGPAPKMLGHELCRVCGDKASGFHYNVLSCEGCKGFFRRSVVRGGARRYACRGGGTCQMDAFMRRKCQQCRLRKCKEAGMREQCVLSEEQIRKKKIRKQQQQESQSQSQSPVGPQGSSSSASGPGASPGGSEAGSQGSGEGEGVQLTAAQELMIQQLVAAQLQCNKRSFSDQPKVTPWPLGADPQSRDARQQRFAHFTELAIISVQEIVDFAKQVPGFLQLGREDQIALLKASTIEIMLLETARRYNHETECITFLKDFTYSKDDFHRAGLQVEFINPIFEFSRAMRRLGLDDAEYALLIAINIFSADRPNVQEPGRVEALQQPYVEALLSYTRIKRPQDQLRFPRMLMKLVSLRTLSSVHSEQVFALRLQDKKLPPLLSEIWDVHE
The data set can be described thus: LXR Gal4 reporter transient transfection assay (FL-M2H Gal4β). It counts as cell-based. To be noted: HEK293 cells, full length LXRβ; read-out: FL-M2H Gal4β (EC50 range). Put shortly:
as §1

Data set [3] in a line: Short term HFD mouse model: plasma and liver exposure. It counts as in vivo, mice (C57BL/6J). As to conditions: HFD mice, 4 h after last dose. Here is the method: Short Term HFD Mouse Model:
The in vivo transcriptional regulation of several LXR target genes by LXR modulators was assessed in mice.
For this, C57BL/6J were purchased from Elevage Janvier (Rennes, France) at the age of 8 weeks. After an acclimation period of two weeks, animals were preferred on a high fat diet (HFD) (Ssniff Spezialdiäten GmbH, Germany, Surwit EF D12330 mod, Cat. No. E15771-34), with 60 kcal % from fat plus 1% (w/w) extra cholesterol (Sigma-Aldrich, St. Louis, Mo.) for 5 days. Animals were maintained on this diet during treatment with LXR modulators. The test compounds were formulated in 0.5% hydroxypropylmethylcellulose (HPMC) and administered in three doses (from 1.5 to 20 mg/kg each) by oral gavage according to the following schedule: on day one, animals received treatment in the morning and the evening (ca. 17:00), on day two animals received the final treatment in the morning after a 4 h fast and were sacrificed 4 h thereafter. Animal work was conducted according to the national guidelines for animal care in Germany.
Upon termination, liver was collected, dipped in ice cold PBS for 30 seconds and cut into appropriate pieces. Pieces were snap frozen in liquid nitrogen and stored at −80° C. For the clinical chemistry analysis from plasma, alanine aminotransferase (ALT, IU/mL), cholesterol (CHOL, mg/dL) and triglycerides (TG, mg/dL) were determined using a fully-automated bench top analyzer (Respons®910, DiaSys Greiner GmbH, Flacht, Germany) with system kits provided by the manufacturer.

[4] abbreviates: LXRβ LBD, read-out: LBD-M2H Gal4β (EC50 range).

The text below walks through data of patent US11618747B2, “LXR modulators with bicyclic core moiety” (OrsoBio, Inc., priority 2018, dated 2023).

Read-outs that look alike come from different tables or passages of the source.

Turning to `Cc1ccc(S(=O)(=O)n2c(-c3cccc(N4CC(C(=O)O)C4)c3)c(-c3ccsc3C#N)c3cc(F)ccc32)cc1` [3/32], in data set [1], the “LBD-M2H Gal4β efficacy (value in brackets)” value came to 81%. The results for the EC50 in data set [1] (read-out: LBD-M2H Gal4β potency) and in data set [2] were 13 nM and less than 100 nM, respectively.

Take `Cc1ccc(S(=O)(=O)n2c(-c3cccc(N4CC(C(=O)O)C4)c3)c(-c3ccsc3C#N)c3cc(F)c(F)cc32)cc1` [3/42]: the EC50 in data set [1] (setting [4]) and in data set [2] was less than 100 nM each time.

For `Cc1ccc(S(=O)(=O)n2c(-c3cccc(N4CC(C(=O)O)C4)c3)c(-c3ccsc3C#N)c3cc(F)c(Cl)cc32)cc1` [3/43], the EC50 in data set [1] (setting [4]) was 100 to 1000 nM; in data set [2], less than 100 nM.

For `Cc1ccc(S(=O)(=O)n2c(-c3cccc(N4CC(C(=O)O)C4)c3)c(-c3ccsc3C#N)c3cc(Cl)ccc32)cc1` [3/44], the EC50 in data set [1] (setting [4]) and in data set [2] was less than 100 nM each time.

`Cc1ccc(S(=O)(=O)n2c(-c3cccc(N4CC(C(=O)O)C4)c3)c(-c3ccsc3C#N)c3cc(C)ccc32)cc1` [3/46]: the EC50 in data set [1] (setting [4]) and in data set [2] was less than 100 nM each time.

For `N#Cc1cccc(C#N)c1-c1c(-c2cccc(-c3ccc(C(=O)O)cc3Cl)c2)n(S(=O)(=O)C2CCC(F)(F)CC2)c2ccc(F)cc12` [11/63], the EC50 in data set [2] was less than 100 nM. Moreover, in data set [3] (three oral doses of 10 mg/kg), the “liver exposure 4 h” value is “C (1 μM to ≤10 μM)”, the “liver/plasma ratio 4 h” value is “B (5 to ≤30)” and the “plasma exposure 4 h” value is recorded as “D (D: <100 nM)”.

For `N#Cc1cccc(C#N)c1-c1c(-c2cccc(-c3cc(F)c(C(=O)O)cc3Cl)c2)n(S(=O)(=O)c2ccc(C(F)F)cc2)c2ccc(F)cc12` [11/65], in data set [2], the EC50 is less than 100 nM. Moreover, in data set [3] (three oral doses of 10 mg/kg), the “liver exposure 4 h” value is “C (1 μM to ≤10 μM)”, the “liver/plasma ratio 4 h” value was “C (30 to ≤100)” and the “plasma exposure 4 h” value was “D (D: <100 nM)”.

On to `N#Cc1cccc(C#N)c1-c1c(-c2cccc(-c3ccc(C(=O)NCC(=O)O)cc3Cl)c2)n(S(=O)(=O)c2ccc(C(F)F)cc2)c2ccc(F)cc12` [21/3], for which the EC50 in data set [2] is less than 100 nM. Also, in data set [3] (three oral doses of 10 mg/kg), the “liver exposure 4 h” value is “C (1 μM to ≤10 μM)”, the “liver/plasma ratio 4 h” value is “D (>100)” and the “plasma exposure 4 h” value is “D (D: <100 nM)”.

In the case of `Cc1ccc(S(=O)(=O)n2c(-c3cccc(-c4ccc(C(=O)O)cc4)c3)c(-c3ccsc3C#N)c3cc(F)ccc32)cc1C` [23/2], the EC50 in data set [2] is less than 100 nM. Moreover, in data set [3] (three oral doses of 20 mg/kg), the “liver exposure 4 h” value is on record as “A (<300 nM)”, the “liver/plasma ratio 4 h” value is listed as “A (<5)” and the “plasma exposure 4 h” value is on record as “C (C: 100 nM to <300 nM)”.
